Key:
[1] = design: species or system mice; settings: mouse, in vivo, po, 60 mg/kg
[2] = test system: TrkB; design: method as in Luo et al., 2019; settings: ref Luo et al., 2019; read-out: half-maximal inhibitory concentration, TrkB kinase activity; cited from earlier work
[3] = Pharmacokinetic study in rat plasma (IV and oral), LC-MS/MS, non-compartmental analysis; type: in vivo, Wistar rats
Procedure: For intravenous (IV) treatment, Indo5 was dissolved in DMSO (solution, 1 mg/ml) and injected into the lateral tail vein of rats (1 mg/kg, n = 3). For intragastric treatment, Indo5 was dissolved in 5% CMC-Na (suspension, 20 mg/ml). The rats were orally administered with Indo5 (100 mg/kg, n = 3) using a 20-G gavage needle. All of the animals were given a standard diet 4 h after the dosing. Blood samples (approximately 400 μl) were collected from each rat and placed into heparinized tubes before the dosing, and at 5, 15, 30, 60, 120, 240, and 480 min after the dosing. Plasma (100 μl) was harvested by centrifuging blood samples at 3,600 g for 10 min at room temperature followed by immediate processing for the analyses.
Briefly, 400 μl acetonitrile was added to 100 μl rat plasma or tissue homogenate, vortexed for 30 s, and centrifuged at 10,000 g for 10 min at room temperature to precipitate proteins. Subsequently, the supernatant (40 μl) was introduced into the HPLC/MS system. Plasma or tissue concentrations of Indo5 were determined using HPLC-MS/MS validated for pharmacokinetics.
The plasma concentration–time data obtained after intravenous and intragastric administrations were subjected to non-compartmental analyses based on the statistical moment theory. Pharmacokinetic parameters were calculated using WinNorlin 5.2 (Certara; www.certara.com/). These parameters included the maximum plasma concentration (Cmax), time to reach Cmax (Tmax), elimination half-life (t1/2), area under the plasma concentration–time curve from time zero to infinity (AUC0–∞), mean residence time (MRT), and clearance (CL). The absolute oral bioavailability was calculated by dividing the AUCtot obtained from oral administration by the AUCtot obtained from IV administration, and the calculation was adjusted using the doses that had been administered via oral and IV routes.

[4] = test system: HCC cells; design: method as in Luo et al., 2019; settings: ref Luo et al., 2019, cited from earlier work
[5] = test system: TrkA; design: method as in Luo et al., 2019; settings: ref Luo et al., 2019; read-out: half-maximal inhibitory concentration, TrkA kinase activity; cited from earlier work
[6] = Tissue-distribution study in rats; type: in vivo, Wistar rats
[7] = oral (p.o.) 100 mg/kg in CMC-Na suspension, n = 3

Cc1ccccc1NS(=O)(=O)c1ccc2c(c1)C(=Cc1nc3ccccc3[nH]1)C(=O)N2 [Indo5, 3-(1H-benzimidazol-2-methylene)-5-(2-methylphenylaminosulfo)-2-indolone]
histological analysis of liver tissue [1]: no pathological changes
number and frequencies of immune cells in the liver (flow cytometry) [1]: did not affect the number or frequencies of immune cells in the liver
IC50 [2]: 25 nM
Tmax ([3]; IV 1 mg/kg): 1 min
AUC0-t ([3]; IV 1 mg/kg in DMSO, n = 3): 158.6 ± 27.9 ng·h/mL
AUC0-∞ ([3]; IV 1 mg/kg in DMSO, n = 3): 163.4 ± 28.3 ng·h/mL
CL ([3]; IV 1 mg/kg in DMSO, n = 3): 6,121.6 ± 1,124.8 ml/h/kg
Cmax ([3]; IV 1 mg/kg in DMSO, n = 3): 1,565.3 ± 286.2 ng/ml
MRT0-t ([3]; IV 1 mg/kg in DMSO, n = 3): 10.8 ± 2.4 min
MRT0-∞ ([3]; IV 1 mg/kg in DMSO, n = 3): 15.6 ± 3.6 min
Tmax ([3]; IV 1 mg/kg in DMSO, n = 3): 1 min
t1/2 ([3]; IV 1 mg/kg in DMSO, n = 3): 37.8 ± 6.6 min
AUC0-t [3, 7]: 251.5 ± 43.5 ng·h/mL
AUC0-∞ [3, 7]: 255.7 ± 44.9 ng·h/mL
CL [3, 7]: 391056.4 ± 77,945.8 ml/h/kg
Cmax [3, 7]: 54.7 ± 10.4 ng/mL
MRT0-t [3, 7]: 172 ± 36.6 min
MRT0-∞ [3, 7]: 179 ± 37.8 min
Tmax [3, 7]: 120 ± 28.8 min
Vd [3, 7]: 706.349 ± 106.9412 L/kg
t1/2 [3, 7]: 75 ± 14.4 min
survival of mice with hepatic orthotopic tumors ([4]; hepatic orthotopic tumors): increases the survival
growth of HCC cells in xenograft-transplanted mice ([4]; xenograft-transplanted mice): significantly decreases the growth of HCC cells
IC50 [5]: 28 nM
crossing of blood–brain and blood–testes barriers [6]: could not cross the blood–brain or blood–testes barriers

From paper PMC8383318, “Preclinical Pharmacokinetics, Tissue Distribution, and Primary Safety Evaluation of Indo5, a Novel Selective Inhibitor of c-Met and Trks” (Frontiers in Pharmacology, 2021)
